# From ChEMBL document CHEMBL1201862, “PubChem BioAssay data set” (2004)
#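 Dose response: 5 concentrations. Exposure: 48 h. Format: 96-well plates. Endpoint: linear interpolation; highest concentration if not reached. The concentration for 50% growth inhibition is given as GI50.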 Active and inactive are the calls of the source. Rule as the data show it: active = GI50 up to about 1.1 µM and inactive = higher.
# Columns and labels:
# Assay in all cases: NCI-60 cell line screen, 48 h
# LXFL 529 = tested on: LXFL 529
# KM-20L2 = tested on: KM-20L2
# DMS-114 = tested on: DMS-114
# RXF 631 = tested on: RXF 631
# DMS-273 = tested on: DMS-273
# HOP-18 = tested on: HOP-18
# M19-MEL = tested on: M19-MEL
# SNB-78 = tested on: SNB-78
# XF498 = tested on: XF498
Structure (SMILES),GI50 (LXFL 529),GI50 (KM-20L2),GI50 (DMS-114),GI50 (RXF 631),GI50 (DMS-273),GI50 (HOP-18),GI50 (M19-MEL),GI50 (SNB-78),GI50 (XF498)
Clc1ccc(CCc2ccncn2)c(Cl)c1,36.3 µM (inactive),73.5 µM (inactive),30.1 µM (inactive),60.1 µM (inactive),97.5 µM (inactive),33.3 µM (inactive),47.8 µM (inactive),61.5 µM (inactive),–
Oc1nc(-c2ccccc2)cc(-c2ccccc2O)n1,50.4 µM (inactive),67.5 µM (inactive),58.5 µM (inactive),–,> 100 µM (inactive),> 100 µM (inactive),> 100 µM (inactive),> 100 µM (inactive),65 µM (inactive)
CC12CC3(C)CC(C)(C1)CC(N=[N+]=[N-])(C2)C3,> 100 µM (inactive),–,> 100 µM (inactive),> 100 µM (inactive),> 100 µM (inactive),> 100 µM (inactive),> 100 µM (inactive),> 100 µM (inactive),> 100 µM (inactive)
COc1ccc(CC/N=C2\CCC(C(=O)NCCc3ccc(OC)c(OC)c3)N2)cc1OC (stereo not drawn),> 100 µM (inactive),> 100 µM (inactive),> 100 µM (inactive),> 100 µM (inactive),> 100 µM (inactive),> 100 µM (inactive),–,> 100 µM (inactive),> 100 µM (inactive)
C/C(=N/N(C=O)C[n+]1ccccc1)C(CN(CC(C)C)CC(C)C)C(=O)Nc1ccc(C)cc1C (stereo not drawn),–,> 100 µM (inactive),70.8 µM (inactive),> 100 µM (inactive),–,–,–,–,–
CCOc1ccccc1/N=N/c1c(-c2ccccc2)nn(C(=O)CC(=O)Nc2cccc(Cl)c2)c1-c1ccccc1,39.5 µM (inactive),68.2 µM (inactive),15.9 µM (inactive),–,22.5 µM (inactive),> 100 µM (inactive),76.6 µM (inactive),59.3 µM (inactive),62.4 µM (inactive)
CCN(CC)CCOc1ccc(CCc2cc(OC)c(OC)c(OC)c2)cc1,35.1 µM (inactive),31.9 µM (inactive),21.9 µM (inactive),53.5 µM (inactive),18.2 µM (inactive),> 100 µM (inactive),23.8 µM (inactive),> 100 µM (inactive),23.7 µM (inactive)
Cc1nc2ccccc2c(=O)n1/N=C(\N=N\c1cc(Cl)ccc1Cl)c1ccc(N(C)C)cc1,29.9 µM (inactive),> 100 µM (inactive),22.8 µM (inactive),–,38.5 µM (inactive),75.9 µM (inactive),> 100 µM (inactive),–,2.79 µM (inactive)
COc1ccc(/C(=C/n2ccnc2)C(=O)c2ccc(OC)c(OC)c2)cc1,> 100 µM (inactive),> 100 µM (inactive),> 100 µM (inactive),–,> 100 µM (inactive),–,> 100 µM (inactive),–,> 100 µM (inactive)
O=C1c2cccc([N+](=O)[O-])c2C(=O)c2nccnc21,–,2.7 µM (inactive),0.982 µM (active),–,3.5 µM (inactive),1.69 µM (inactive),0.122 µM (active),3.09 µM (inactive),–
Clc1ccc2c(Cl)ncnc2c1I,34 µM (inactive),> 100 µM (inactive),54.3 µM (inactive),–,> 100 µM (inactive),–,> 100 µM (inactive),–,91.6 µM (inactive)
CC(=O)N(/N=C\c1ccc([N+](=O)[O-])cc1)c1ccccc1,–,> 100 µM (inactive),99.8 µM (inactive),> 100 µM (inactive),> 100 µM (inactive),> 100 µM (inactive),> 100 µM (inactive),> 100 µM (inactive),> 100 µM (inactive)
N/C(=N\O)N/N=C/c1ccc(O)c(O)c1,> 100 µM (inactive),> 100 µM (inactive),> 100 µM (inactive),> 100 µM (inactive),34.5 µM (inactive),> 100 µM (inactive),> 100 µM (inactive),> 100 µM (inactive),> 100 µM (inactive)
Cc1c[nH]c2c1C13CC1CN(C(=O)c1cc4cc(NC(=O)c5cc6ccccc6o5)ccc4[nH]1)C3=CC2=O (stereo not drawn),–,< 0.001 µM (active),< 0.001 µM (active),< 0.001 µM (active),–,< 0.001 µM (active),< 0.001 µM (active),< 0.001 µM (active),< 0.001 µM (active)
CCCCCCCCCCCCCCCC/C(C(=O)OC)=C(/O)C(=O)OCC,> 100 µM (inactive),> 100 µM (inactive),> 100 µM (inactive),–,> 100 µM (inactive),> 100 µM (inactive),> 100 µM (inactive),> 100 µM (inactive),–
O=C1C(c2ccccc2)=C(c2ccccc2)C(c2ccc(Sc3ccc(C4=C(c5ccccc5)C(=O)C(c5ccccc5)=C4c4ccccc4)cc3)cc2)=C1c1ccccc1,–,> 100 µM (inactive),> 100 µM (inactive),> 100 µM (inactive),> 100 µM (inactive),–,> 100 µM (inactive),87.5 µM (inactive),> 100 µM (inactive)
O=C(CCCNC(=O)OCc1ccccc1)OCc1ccc2c(c1)C(=O)c1ccccc1C2=O,> 100 µM (inactive),> 100 µM (inactive),> 97.1 µM (inactive),> 78.7 µM (inactive),–,–,–,38.4 µM (inactive),–
O=C(O)c1ccc(C2C(=O)N[C@@H]3CCC[C@H]23)cc1 (stereo partly drawn),> 100 µM (inactive),> 100 µM (inactive),> 100 µM (inactive),–,> 100 µM (inactive),> 100 µM (inactive),> 100 µM (inactive),> 100 µM (inactive),–
CCCCCCN(CCCCCC)C(=S)N/N=C(\C)c1ccccn1,0.208 µM (active),0.673 µM (active),0.571 µM (active),1.02 µM (active),1.63 µM (inactive),–,–,0.711 µM (active),–
COc1ccc(C2C(N)=NCC2c2ccccn2)cc1 (stereo not drawn),> 100 µM (inactive),> 100 µM (inactive),> 100 µM (inactive),> 100 µM (inactive),–,30.1 µM (inactive),> 100 µM (inactive),> 100 µM (inactive),> 100 µM (inactive)
CCOC(=O)C1=C(Nc2ccc(Cl)c(Cl)c2)OC/C1=N\NS(=O)(=O)c1ccc(C)cc1,46.9 µM (inactive),31.4 µM (inactive),56.4 µM (inactive),29.6 µM (inactive),–,27.5 µM (inactive),94.6 µM (inactive),> 100 µM (inactive),94 µM (inactive)
Oc1ccc2occ3c2c1CCC3,> 100 µM (inactive),> 100 µM (inactive),81.8 µM (inactive),> 100 µM (inactive),> 100 µM (inactive),> 100 µM (inactive),> 100 µM (inactive),> 100 µM (inactive),67 µM (inactive)
Cc1ccc(C)c(NC(=O)C(=O)Nn2c(S)nc3ccccc3c2=O)c1,> 100 µM (inactive),> 100 µM (inactive),> 100 µM (inactive),> 100 µM (inactive),> 100 µM (inactive),> 100 µM (inactive),–,> 100 µM (inactive),–
C(CCC[Te][Te]CCCCCCOC1CCCCO1)CCOC1CCCCO1 (stereo not drawn),9.02 µM (inactive),14.7 µM (inactive),3.89 µM (inactive),–,–,19.3 µM (inactive),–,17.1 µM (inactive),10.2 µM (inactive)
COC(=O)C(C(=O)C(=O)Nc1ccccc1C(C)=O)c1nc2ccc(Cl)cc2nc1O (stereo not drawn),> 100 µM (inactive),> 100 µM (inactive),> 100 µM (inactive),> 100 µM (inactive),–,53.5 µM (inactive),> 100 µM (inactive),> 100 µM (inactive),–
